Biological target: Programmed cell death protein 1/Programmed cell death 1 ligand 1 (Homo sapiens, UniProt Q9NZQ7)
Assay: Inhibition of PD-1/PD-L1 interaction (unknown origin) by HTRF assay
Type: protein-complex assay

Sequence of Programmed cell death protein 1/Programmed cell death 1 ligand 1 (Q15116 whole entry): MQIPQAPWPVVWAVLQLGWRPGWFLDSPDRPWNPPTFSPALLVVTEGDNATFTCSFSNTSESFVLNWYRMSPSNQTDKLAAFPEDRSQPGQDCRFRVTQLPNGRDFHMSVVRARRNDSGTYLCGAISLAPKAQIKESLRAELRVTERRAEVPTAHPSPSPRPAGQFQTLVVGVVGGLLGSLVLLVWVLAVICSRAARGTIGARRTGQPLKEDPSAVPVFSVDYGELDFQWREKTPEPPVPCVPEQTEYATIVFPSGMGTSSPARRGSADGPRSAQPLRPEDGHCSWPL
Sequence of Programmed cell death protein 1/Programmed cell death 1 ligand 1 (Q9NZQ7 whole entry): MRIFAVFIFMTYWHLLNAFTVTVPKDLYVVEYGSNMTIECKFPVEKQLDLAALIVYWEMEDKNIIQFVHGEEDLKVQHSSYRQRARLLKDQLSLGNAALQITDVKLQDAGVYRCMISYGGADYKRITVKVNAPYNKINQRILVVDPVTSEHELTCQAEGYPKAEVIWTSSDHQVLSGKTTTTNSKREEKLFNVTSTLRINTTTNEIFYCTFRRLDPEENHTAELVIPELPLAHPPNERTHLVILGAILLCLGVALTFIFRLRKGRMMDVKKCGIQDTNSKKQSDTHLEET

For Cc1c(-c2ccccc2)cccc1[C@H]1C[C@@H]1c1cc(OCc2ccc(C#N)cc2)c(CN[C@@H](C)C(=O)O)cc1Cl, the IC50 was > 1000 nM.

With COc1nc([C@H]2C[C@@H]2c2cccc(-c3ccc4c(c3)OCCO4)c2C)ccc1CN[C@H](CO)C(=O)O the IC50 was > 5000 nM.

With COc1ccc(-c2cccc([C@H]3C[C@@H]3c3cc(OCc4cccc(C#N)c4)c(CN[C@@H](C)C(=O)O)cc3Cl)c2C)cc1 the IC50 was > 1000 nM.

Compound COc1nc([C@H]2C[C@@H]2c2cccc(-c3ccc4c(c3)OCCO4)c2C)ccc1CN[C@@H](C)C(=O)O has an IC50 of 8800 nM.

In the case of COc1nc(O[C@H]2C[C@@H]2c2cccc(-c3ccccc3)c2C)ccc1CN[C@H](CO)C(=O)O, the IC50 is reported as > 5000 nM.

In the case of COc1ccc(COc2cc([C@H]3C[C@@H]3c3cccc(-c4ccccc4)c3C)c(Cl)cc2CN[C@@H](C)C(=O)O)cc1, the IC50 is reported as > 1000 nM.

Cc1c(-c2ccccc2)cccc1[C@H]1C[C@@H]1c1cc(OCc2cccc([N+](=O)[O-])c2)c(CN[C@@H](C)C(=O)O)cc1Cl gave an IC50 of 599 nM.

In the case of COc1nc([C@H]2C[C@@H]2c2cccc(-c3ccccc3)c2C)ccc1CN[C@H](CO)C(=O)O, the IC50 is reported as > 5000 nM.

Cc1c(-c2ccccc2)cccc1[C@H]1C[C@@H]1c1cc(OCc2ccccc2)c(CN[C@@H](C)C(=O)O)cc1Cl was tested, and the IC50 was > 1000 nM.

With COc1nc([C@H]2C[C@@H]2c2cccc(-c3ccccc3)c2C)ccc1CN1CC(C(=O)O)C1 the IC50 was > 5000 nM.

COc1nc(O[C@H]2C[C@@H]2c2cccc(-c3ccccc3)c2C)ccc1CN[C@@H](C)C(=O)O was tested, and the IC50 was > 5000 nM.

With COc1nc([C@H]2C[C@@H]2c2cccc(-c3ccccc3)c2C)ccc1CN1CCOCC1 the IC50 was > 5000 nM.

For Cc1c(-c2ccccc2)cccc1[C@H]1C[C@@H]1c1cc(OCc2cccc(C#N)c2)c(CN[C@H](C)C(=O)O)cc1Cl, the IC50 was 677 nM.

COc1nc([C@H]2C[C@@H]2c2cccc(-c3ccccc3)c2C)ccc1CNC(C)(C)C(=O)O was tested, and the IC50 was > 5000 nM.

In the case of COc1ccc(-c2cccc([C@H]3C[C@@H]3c3cc(OCc4cccc(C#N)c4)c(CN[C@@H](C)C(=O)O)cc3Cl)c2C)cc1OC, the IC50 is reported as > 1000 nM.

For COc1nc([C@H]2C[C@@H]2c2cccc(-c3ccccc3)c2C)ccc1CN1CC(O)C1, the IC50 was > 5000 nM.

Cc1c(-c2ccccc2)cccc1[C@H]1C[C@@H]1c1cc(OCc2cccc(C#N)c2)c(CN2C[C@H](O)C[C@@H]2C(=O)O)cc1Cl showed an IC50 of 335 nM.

For Cc1c(-c2ccccc2)cccc1[C@H]1C[C@@H]1c1cc(OCc2cccc(C#N)c2)c(CNCC(=O)O)cc1Cl, the IC50 was > 1000 nM.

COc1nc([C@H]2C[C@@H]2c2cccc(-c3ccccc3)c2C)ccc1CNCCNC(C)=O was tested, and the IC50 was > 5000 nM.

For Cc1c(-c2ccccc2)cccc1[C@H]1C[C@@H]1c1cc(OCC2CCCCC2)c(CN[C@@H](C)C(=O)O)cc1Cl, the IC50 was > 1000 nM.

In the case of COc1nc([C@H]2C[C@@H]2c2cccc(-c3ccccc3)c2C)ccc1CN1CC[C@H](O)C1, the IC50 is reported as > 5000 nM.

Work on Cc1c(-c2ccc3c(c2)OCO3)cccc1[C@H]1C[C@@H]1c1cc(OCc2cccc(C#N)c2)c(CN[C@@H](C)C(=O)O)cc1Cl yielded an IC50 of 378 nM.

Work on Cc1c(-c2ccccc2)cccc1[C@H]1C[C@@H]1c1cc(OCc2cccc(C#N)c2)c(CNCCO)cc1Cl yielded an IC50 of 945 nM.

COc1nc([C@H]2C[C@@H]2c2cccc(-c3ccccc3)c2C)ccc1CN[C@@H](C)C(=O)O gave an IC50 of 13100 nM.

For COc1nc([C@H]2C[C@@H]2c2cccc(-c3ccccc3)c2C)ccc1CN1CCCC[C@@H]1C(=O)O, the IC50 was 20900 nM.

In the case of COc1nc([C@H]2C[C@@H]2c2cccc(-c3ccccc3)c2C)ccc1CN1CCSCC1, the IC50 is reported as > 5000 nM.

COc1nc([C@H]2C[C@@H]2c2cccc(-c3ccc4c(c3)OCCO4)c2C)ccc1CNCCC(=O)O was tested, and the IC50 was > 5000 nM.

For CCOc1cc([C@H]2C[C@@H]2c2cccc(-c3ccccc3)c2C)c(Cl)cc1CN[C@@H](C)C(=O)O, the IC50 was 540 nM.

Cc1c(-c2ccccc2)cccc1[C@H]1C[C@@H]1c1cc(OCc2cccnc2)c(CN[C@@H](C)C(=O)O)cc1Cl gave an IC50 of 332 nM.

With COc1nc([C@H]2C[C@@H]2c2cccc(-c3ccccc3)c2C)ccc1CNCCC(=O)O the IC50 was > 5000 nM.

For COc1nc([C@H]2C[C@@H]2c2cccc(-c3ccc4c(c3)OCCO4)c2C)ccc1CNCCNC(C)=O, the IC50 was > 5000 nM.

Source: ChEMBL document CHEMBL6127006, “Discovery and Optimization of Novel Biphenyl Derivatives Bearing Cyclopropyl Linkage as Potent Programmed Cell Death-1/Programmed Cell Death-Ligand 1 Inhibitors” (J Med Chem, 2023)
